In publication PMC4503722, “Novel Phenotypic Outcomes Identified for a Public Collection of Approved Drugs from a Publicly Accessible Panel of Assays” (PLoS ONE, 2015):
pEC50, pIC50: −log10 of the molar value. Read-outs that look alike come from different tables or passages of the source.

Assays:
[1] = tested on: nuclear β-catenin in C2C12 cells; assay: cells; assay type: cell-based
INS-1E cells = assay: cells; assay type: cell-based, rat
HeLa cells = assay: cells; assay type: cell-based; details: for pEC50: HeLa, read-out: CellCycle G2/M
DLD-1 = assay: cells; assay type: cell-based
SW480 = assay: cells; assay type: cell-based
HCT116 = assay: cells; assay type: cell-based
[2] = tested on: HCT116 cells treated with a GSK3β inhibitor; assay: cells; assay type: cell-based
Colo320 = assay: cells; assay type: cell-based
RKO = assay: cells; assay type: cell-based
SNU-C1 = assay: cells; assay type: cell-based
[3] = tested on: endothelial tube formation in co-cultures of ECFCs and ADSCs treated with VEGF; assay: cells; assay type: cell-based, human
NCI-H716 cells = assay: cells; assay type: cell-based, Human; details: for pEC50: NCI-H716, read-out: GLP 1 Secretion
HT-29 = assay: cells; assay type: cell-based; details: assay number 28; basal
[4] = tested on: ECFC/ADSC co-culture cell nuclei number
[5] = Mus musculus, C2C12, IC50 / EC50, C2C12 beta-catenin translocation, read-out: Wnt Pathway
[6] = Rattus norvegicus; IC50 / EC50; INS-1E; read-out: Insulin Secretion
[7] = Homo sapiens, DLD-1, read-out: Basal_Viability ATP DLD-1
[8] = Homo sapiens, SW480, basal, read-out: Basal_Viability ATP SW480
[9] = Homo sapiens, HCT-116, basal, read-out: Basal_Viability ATP HCT116
[10] = Homo sapiens, HCT-116, GSK3b inhibitor pretreated, read-out: GSK3b inh pretreated_Viability ATP HCT116
[11] = Homo sapiens, HCT-116, read-out: GSK3b inh pretreated_Viability ATP HCT116
[12] = IC50 / EC50, C2C12 beta-catenin translocation, read-out: Wnt Pathway
[13] = IC50 / EC50; INS-1E; read-out: Insulin Secretion
[14] = basal, read-out: Basal_Viability ATP DLD-1
[15] = basal, read-out: Basal_Viability ATP SW480
[16] = basal, read-out: Basal_Viability ATP HCT116
[17] = GSK3b inhibitor pretreated, read-out: GSK3b inh pretreated_Viability ATP HCT116
[18] = Rattus norvegicus, INS-1E; read-out: Insulin Secretion

Q: With `CCN(CC)CCCC(C)Nc1c2ccc(Cl)cc2nc2ccc(OC)cc12` (centres unmarked) [Mepacrine] as the molecule, how does the pEC50 [1, 5] read?
A: The pEC50 was under 5.00.

Q: And the pEC50 (INS-1E cells; [6])?
A: The pEC50 was 5.39.

Q: What about the pEC50 (HeLa cells; Homo sapiens, IC50 / EC50) of the same molecule?
A: The pEC50 was under 5.00.

Q: And the pIC50 (DLD-1; [7])?
A: Its pIC50 is 5.15.

Q: And the pIC50 (SW480; [8])?
A: The pIC50 was 5.44.

Q: What about the pIC50 (HCT116; [9]) of the same molecule?
A: Its pIC50 is 5.24.

Q: And the pIC50 [2, 10]?
A: The pIC50 was 5.35.

Q: And the pIC50 (Colo320; Homo sapiens, COLO 320, read-out: Basal_Viability ATP Colo 320)?
A: The pIC50 was 5.07.

Q: And the pIC50 (RKO; Homo sapiens, RKO, read-out: Basal_Viability ATP RKO)?
A: Its pIC50 is 5.47.

Q: What about the pIC50 (SNU-C1; Homo sapiens, SNU-C1, basal, read-out: Basal_Viability ATP SNU-C1) of the same molecule?
A: Its pIC50 is 5.42.

Q: Which results are given for `CN(C)c1ccc2nc3ccc(=[N+](C)C)cc-3sc2c1` [Methylene blue]?
A: pEC50 ([1]; Mus musculus, C2C12, read-out: Wnt Pathway): < 5.00; pEC50 (INS-1E cells; Rattus norvegicus, INS-1E, read-out: Insulin Secretion): < 5.00; pIC50 (DLD-1; [7]): < 4.70; pIC50 (SW480; Homo sapiens, SW480, read-out: Basal_Viability ATP SW480): 5.57; pIC50 (HCT116; Homo sapiens, HCT-116, read-out: Basal_Viability ATP HCT116): 5.53; pIC50 [2, 11]: 5.86

Q: For `OCCOc1ccccc1` [NCGC00090731-08], which “assay 1 Angio CD31 TubeArea max %inh” value ([3]; single concentration screen (2 and 10 μM), maximum of all test results, 0 = DMSO, 100 = positive control) is on record?
A: Its value is 8.6%.

Q: And the “assay 4 WntCondMedia bCatenin fluor/nucarea C2C12 max %stim” value ([1]; single concentration screen (2 and 10 μM), maximum of all test results)?
A: The value was 0.5%.

Q: And the “assay 7 5mMGluc INS1E InsulinRelease max %stim” value (INS-1E cells; single concentration screen (2 and 10 μM), 5 mM glucose, maximum of all test results)?
A: The value was 0.2%.

Q: What about the “assay 11 hNCI-H716 GLP1 Secretion max %stim” value (NCI-H716 cells; single concentration screen (2 or 10 μM), maximum of all test results) of the same molecule?
A: Its value is 3.7%.

Q: With `CC(=O)O[C@@]12CO[C@@H]1C[C@H](O)[C@@]1(C)C(=O)[C@H](O)C3=C(C)[C@@H](OC(=O)[C@H](O)[C@@H](NC(=O)OC(C)(C)C)c4ccccc4)C[C@@](O)([C@@H](OC(=O)c4ccccc4)[C@H]21)C3(C)C` [NCGC00181306-04] as the molecule, how does the “VEGF_ADSC\ECFC Angio CD31 TubeArea IC50/EC50” value [3] read?
A: Its value is 0.001 µM.

Q: And the “WntCondMedia_bCatenin C2C12 IC50/EC50” value ([1]; assay number 5, concentration response)?
A: Its value is 0.0652 µM.

Q: What about the “Hela CellCycMod PI 2N IC50/EC50” value (HeLa cells; assay number 14, 2N) of the same molecule?
A: Its value is 0.0031 µM.

Q: What about the “Hela CellCycMod PI S Phase IC50/EC50” value (HeLa cells; assay number 15, S phase) of the same molecule?
A: The value was over 10 µM.

Q: What about the “Hela CellCycMod PI 4N IC50/EC50” value (HeLa cells; assay number 16, 4N) of the same molecule?
A: The value was 0.00335 µM.

Q: What about the “Hela CellCycMod PI MI IC50/EC50” value (HeLa cells; assay number 17, MI) of the same molecule?
A: The value was 0.00317 µM.

Q: What about the “Hela CellCycMod PI Cell Number IC50/EC50” value (HeLa cells; assay number 18, cell number) of the same molecule?
A: The value was 0.001 µM.

Q: What about the “Basal_Viability ATP SW480 IC50/EC50” value (SW480; assay number 24, basal) of the same molecule?
A: The value was 0.001 µM.

Q: And the “Basal_Viability ATP HCT116 IC50/EC50” value (HCT116; assay number 25, basal)?
A: The value was 0.001 µM.

Q: What about the “GSK3b inh pretreated_Viability ATP HCT116 IC50/EC50” value ([2]; assay number 26, GSK3b inhibitor pretreated) of the same molecule?
A: Its value is 0.001 µM.

Q: And the “Basal_Viability ATP Colo 320 IC50/EC50” value (Colo320; assay number 27, basal)?
A: Its value is 0.001 µM.

Q: What about the “Basal_Viability ATP HT-29 IC50/EC50” value (HT-29) of the same molecule?
A: The value was 0.001 µM.

Q: And the “Basal_Viability ATP RKO IC50/EC50” value (RKO; assay number 29, basal)?
A: The value was 0.001 µM.

Q: What about the “Basal_Viability ATP SNU-C1 IC50/EC50” value (SNU-C1; assay number 30, basal) of the same molecule?
A: The value was over 20 µM.

Q: And the “VEGF_ADSC\ECFC Angio Hoechst NucArea IC50/EC50” value [4]?
A: Its value is over 10 µM.

Q: How did the pEC50 [1, 12] turn out when `Cc1cc(CC(C)CC(C)(C)C)n(O)c(=O)c1` (centres unmarked) [Piroctonum] was run?
A: Its pEC50 is 6.23.

Q: And the pEC50 (INS-1E cells; [13])?
A: Its pEC50 is under 5.00.

Q: And the pEC50 (NCI-H716 cells; IC50 / EC50)?
A: Its pEC50 is under 5.00.

Q: And the pEC50 (HeLa cells; IC50 / EC50)?
A: Its pEC50 is under 5.00.

Q: And the pIC50 (DLD-1; [14])?
A: Its pIC50 is 5.97.

Q: What about the pIC50 (SW480; [15]) of the same molecule?
A: Its pIC50 is 6.24.

Q: And the pIC50 (HCT116; [16])?
A: Its pIC50 is 6.11.

Q: And the pIC50 [2, 17]?
A: The pIC50 was 6.30.

Q: `CNC(=O)c1cc(Oc2ccc(NC(=O)Nc3ccc(Cl)c(C(F)(F)F)c3)cc2)ccn1` [Sorafenib tosilate] was tested. Which pEC50 ([1]; Mus musculus, C2C12, S2 Table, module primary assay, 20 / 20.1 codes per legend, read-out: Wnt Pathway) did it give?
A: Its pEC50 is under 5.00.

Q: What about the pEC50 (INS-1E cells; [18]) of the same molecule?
A: The pEC50 was under 5.00.

Q: And the pEC50 (NCI-H716 cells; Homo sapiens)?
A: The pEC50 was under 5.00.

Q: What about the pEC50 (HeLa cells; Homo sapiens, S2 Table, 20 = no response at highest concentration) of the same molecule?
A: Its pEC50 is under 5.00.

Q: And the pIC50 [2, 11]?
A: Its pIC50 is 5.95.

Q: How did the pEC50 ([1]; Mus musculus, C2C12, Table 2, C2C12, […], 20 / 20.1 coded, read-out: Wnt pot. EC50) turn out when `COc1ccc2c(c1)C(=O)N(CCc1ccc(S(=O)(=O)NC(=O)NC3CCCCC3)cc1)C(=O)C2(C)C` [gliquidone, reference compound] was run?
A: Its pEC50 is under 5.00.

Q: And the pEC50 (INS-1E cells; Rattus norvegicus, INS-1E; read-out: Ins. sec. EC50)?
A: The pEC50 was 6.64.

Q: And the pEC50 (INS-1E cells; [18])?
A: Its pEC50 is 6.64.

Q: And the pIC50 (DLD-1; Homo sapiens, DLD-1, 72 h, Table 2, 72 h, Cell TiterGlo, non-adherent, 20 coded, read-out: DLD-1 viab. IC50)?
A: Its pIC50 is 5.29.

Q: And the pIC50 (DLD-1; Homo sapiens, DLD-1, basal, DLD-1, read-out: Basal_Viability ATP DLD-1)?
A: Its pIC50 is 5.29.

Q: And the pIC50 (SW480; Homo sapiens, SW480, 72 h, Table 2, 72 h, Cell TiterGlo, non-adherent, 20 coded, read-out: SW480 viab. IC50)?
A: The pIC50 was 5.26.

Q: And the pIC50 (SW480; Homo sapiens, SW480, basal, SW480, read-out: Basal_Viability ATP SW480)?
A: The pIC50 was 5.26.

Q: And the pIC50 (HCT116; Homo sapiens, HCT-116, 72 h, read-out: HCT-116 viab. IC50, Table 2, basal, 72 h, Cell TiterGlo, non-adherent, 20 coded)?
A: The pIC50 was 5.00.

Q: What about the pIC50 (HCT116; Homo sapiens, HCT-116, basal, HCT116, read-out: Basal_Viability ATP HCT116) of the same molecule?
A: Its pIC50 is 4.99.

Q: And the pIC50 ([2]; Homo sapiens, HCT-116, read-out: HCT-116 (GSK3β) viab. IC50, Table 2, GSK3β inhibitor LY2090314 20 nM, 72 h, Cell TiterGlo, 20 coded)?
A: The pIC50 was 5.15.

Q: And the pIC50 ([2]; Homo sapiens, HCT-116, HCT116 pretreated with GSK3b inhibitor, read-out: GSK3b inh pretreated_Viability ATP HCT116)?
A: Its pIC50 is 5.15.

Q: With `C/C(=C(/CCOC(=O)C(C)C)SS/C(CCOC(=O)C(C)C)=C(\C)N(C=O)Cc1cnc(C)nc1N)N(C=O)Cc1cnc(C)nc1N` [sulbutiamine] as the molecule, how does the pEC50 [1, 5] read?
A: The pEC50 was under 5.00.

Q: And the pEC50 (INS-1E cells; [6])?
A: Its pEC50 is under 4.70.

Q: And the pEC50 (NCI-H716 cells; Homo sapiens, IC50 / EC50)?
A: Its pEC50 is 5.62.

Q: What about the pIC50 (DLD-1; Homo sapiens, DLD-1, basal, read-out: Basal_Viability ATP DLD-1) of the same molecule?
A: Its pIC50 is under 4.70.

Q: And the pIC50 (SW480; [8])?
A: The pIC50 was under 4.70.

Q: What about the pIC50 (HCT116; [9]) of the same molecule?
A: Its pIC50 is under 4.70.

Q: And the pIC50 [2, 10]?
A: The pIC50 was under 4.70.

Q: How did the pEC50 [1, 12] turn out when Janssen brand of muromonab-cd3 was run?
A: The pEC50 was under 5.00.

Q: What about the pEC50 (INS-1E cells; [13]) of the same molecule?
A: Its pEC50 is under 5.00.

Q: What about the pEC50 (NCI-H716 cells; IC50 / EC50) of the same molecule?
A: Its pEC50 is 6.10.

Q: What about the pEC50 (HeLa cells; IC50 / EC50) of the same molecule?
A: Its pEC50 is under 5.00.

Q: And the pIC50 (DLD-1; [14])?
A: Its pIC50 is 5.55.

Q: And the pIC50 (SW480; [15])?
A: Its pIC50 is 5.49.

Q: And the pIC50 (HCT116; [16])?
A: The pIC50 was 5.58.

Q: What about the pIC50 [2, 17] of the same molecule?
A: Its pIC50 is 5.44.
